The source of these data is publication PMC9293649 (The Journal of Biological Chemistry, 2022).

By Kd is commonly meant the equilibrium constant for the complex coming apart. What is called stoichiometry N is the number of molecules, sites or subunits per partner or assembly.

One data set addresses T1, DarB (Bacillus subtilis, UniProt O31698).
T1 sequence (O31698 1-147): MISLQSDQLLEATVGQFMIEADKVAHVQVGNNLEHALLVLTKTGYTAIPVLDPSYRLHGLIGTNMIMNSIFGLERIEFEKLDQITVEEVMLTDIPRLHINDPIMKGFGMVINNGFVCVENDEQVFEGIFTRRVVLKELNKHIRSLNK
Description: ITC and crystal structure. It counts as binding.

The data set “crystal structure” concerns the molecule itself. In words: crystal structure.

As for `Nc1ncnc2c1ncn2[C@@H]1O[C@H](COP(=O)(O)O)[C@@H](O)[C@H]1O` [AMP], at DarB, the Kd worked out at 91.1 µM.

B1: DarB (c-di-AMP receptor protein, CBS domain protein) of Bacillus subtilis, wild type (natural protein)
chain: MISLQSDQLLEATVGQFMIEADKVAHVQVGNNLEHALLVLTKTGYTAIPVLDPSYRLHGLIGTNMIMNSIFGLERIEFEKLDQITVEEVMLTDIPRLHINDPIMKGFGMVINNGFVCVENDEQVFEGIFTRRVVLKELNKHIRSLNK
As for B1, in the data set “crystal structure”, the “stoichiometry N” value was 2.
